Data as given in patent US20090076029A1 (Palatin Technologies, Inc., priority 2007, published 2009).
Like-named read-outs stand apart in the source and are kept apart here.

Legend:
Format in all cases: binding, human
[1] = target: T1, hMC5-R; test: Competitive inhibition assay using [I125]-NDP-α-MSH, hMC5-R membranes; settings: read-out: Ki (nM) (NDP-α-MSH) MC5-R
T1 construct: expressed in transfected cells; host or cells: HEK-293
How it was run: (§1)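 Single-concentration displacement (usually 1 μM compound) of 0.2–0.4 nM [125I]-NDP-α-MSH, run 90 min at room temperature in pH 7.2 HEPES containing MgCl2, CaCl2 and KCl. Receptor sources: transfected HEK-293 membranes for human MC3-R/MC4-R/MC5-R, B-16 mouse melanoma membranes for MC1-R. Bound counts normalised to 1 μM α-MSH-defined specific binding; triplicates averaged, values below 0% set to 0%.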

[2] = test system: T2, hMC4-R; settings: for Inhibition at 1 μM (AgRP) MC4-R: 1 μM compound
T2 construct: expressed in transfected cells; host or cells: HEK-293
How it was run: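 Membranes from hMC4-R-expressing cells incubated 1 h at 37 °C with 0.2 nM [I^125]-AgRP (83-132) and increasing compound in 25 mM HEPES pH 7.5, 100 mM NaCl, 2 mM CaCl2, 2 mM MgCl2, 0.3 mM 1,10-phenanthroline, 0.5% BSA. Filtration, gamma counting; specific binding kept ≤10% of added counts.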

[3] = target: T3, hMC3-R; test: Competitive inhibition assay using [I125]-NDP-α-MSH, hMC3-R membranes; settings: read-out: Ki (nM) (NDP-α-MSH) MC3-R
T3 construct: expressed in transfected cells; host or cells: HEK-293
How it was run: as §1

[4] = target: T2, hMC4-R; test: Competitive inhibition assay using [I125]-NDP-α-MSH, hMC4-R membranes
[5] = MC4-R membranes, Table 1, read-out: Ki (nM) I125-AgRP
[6] = MC4-R membranes, Table 1, read-out: Ki (nM) I125-NPD-α-MSH
[7] = read-out: Ki (nM) (NDP-α-MSH) MC4-R

| Compound | Ki [1] | Inhibition at 1 μM (AgRP) MC4-R [2] | Ki [2, 5] | Ki ([2]; read-out: Ki (nM) (AgRP) MC4-R) | Ki [3] | Ki [4, 6] | Ki [4, 7] | attenuation of binding of α-MSH and AgRP to MC4-R ([4]; both ligands (NDP-α-MSH and AgRP), summary) |
| --- | --- | --- | --- | --- | --- | --- | --- | --- |
| CC(C)C[C@@H]1CN(C(=O)[C@H](N)Cc2ccc(Cl)cc2Cl)[C@@H](CCCNC(=N)N)CN1CCc1ccc2ccccc2c1 [Example 4, N-{3-[1-[2(R)-Amino-3-(2,4-dichloro-phenyl)-propionyl]-5(R)-isobutyl-4-(2-naphthalen-2-yl-ethyl)-piperazin-2(S)-yl]-propyl}-guanidine] | 160 nM | 100% | 6 nM | 6 nM | 87 nM | 5 nM | 5 nM | – |
| CC(=O)N[C@H](Cc1ccc(C)cc1C)C(=O)N1C[C@@H](C)N(CCc2ccc3ccccc3c2)C[C@@H]1CCCNC(=N)N [Example 26, N-{1(R)-(2,4-Dimethyl-benzyl)-2-[2(S)-(3-guanidino-propyl)-5(R)-methyl-4-(2-naphthalen-2-yl-ethyl)-piperazin-1-yl]-2-oxo-ethyl}-acetamide] | 43 nM | 100% | 3 nM | 0.18 nM | 74 nM | 1 nM | 1 nM | – |
| Cc1ccc(C[C@@H](N)C(=O)N2C[C@@H](C)N(CCc3ccc4ccccc4c3)C[C@@H]2CCCNC(=N)N)c(C)c1 [Example 28, N-{3-[1-[2(R)-Amino-3-(2,4-dimethyl-phenyl)-propionyl]-5(R)-methyl-4-(2-naphthalen-2-yl-ethyl)-piperazin-2(S)-yl]-propyl}-guanidine] | 665 nM | 100% | 3 nM | 3 nM | 167 nM | – | – | attenuate the binding of both α-MSH and AgRP to MC4-R |
